How the values were obtained:
[1] = test system: Human immunodeficiency virus 1; assay: Antiviral activity against HIV1 CRF02_AG Clone 33 clinical isolate infected in human TZM-bl cells assessed as inhibition of viral growth incubated for 48 hrs by luciferase based analysis; assay type: functional, organism-based; conditions: Human immunodeficiency virus 1, CRF02_AG Clone 33, TZM-bl
[2] = test system: Human immunodeficiency virus 1; assay: Antiviral activity against HIV1 IIIB infected in human MT2 cells assessed as inhibition of viral growth incubated for 30 mins by ELISA assay; assay type: functional, organism-based; conditions: Human immunodeficiency virus 1, IIIB, MT2, 0.5 h
[3] = target: T1, Envelope glycoprotein gp160 (Human immunodeficiency virus 1, UniProt Q72502); assay: Binding affinity to HIV1 GP41 using GP41 NHR derived N36 peptide assessed as binding constant by fluorescence polarization assay
[4] = test system: Human immunodeficiency virus 1; assay: Antiviral activity against HIV1 QA013.701.ENV.M12 clinical isolate infected in human TZM-bl cells assessed as inhibition of viral growth incubated for 48 hrs by luciferase based analysis; assay type: functional, organism-based; conditions: Human immunodeficiency virus 1, QA013.701.ENV.M12, TZM-bl
[5] = test system: Human immunodeficiency virus 1; assay: Antiviral activity against HIV1 X4 […] MN/H9 (84US_MNp) clinical isolate infected in human MT2 cells assessed as inhibition of viral growth incubated for 30 mins by ELISA assay; assay type: functional, organism-based; conditions: Human immunodeficiency virus 1, X4 […] MN/H9 (84US_MNp), MT2, 0.5 h
[6] = Apparent permeability of the compound across blood brain barrier in PBS buffer at pH 7.4 at 15 uM by PAMPA analysis; assay type: ADME, tissue-based
[7] = Apparent permeability of the compound across gastrointestinal tract in PBS buffer at pH 6.2 at 50 uM by PAMPA analysis; assay type: ADME, tissue-based; conditions: for Papp at 50 µM: PAMPA, pH 6.2
[8] = test system: Human immunodeficiency virus 1; assay: Antiviral activity against HIV1 QD435.100MENV.E1 clinical isolate infected in human TZM-bl cells assessed as inhibition of viral growth incubated for 48 hrs by luciferase based analysis; assay type: functional, organism-based; conditions: Human immunodeficiency virus 1, QD435.100MENV.E1, TZM-bl
[9] = target: T1, Envelope glycoprotein gp160; assay: Binding affinity to HIV1 GP41 using GP41 NHR derived N36 peptide assessed as binding constant in presence of C34 by fluorescence polarization assay
[10] = test system: Human immunodeficiency virus 1; assay: Antiviral activity against HIV1 Q259env.w6 clinical isolate infected in human TZM-bl cells assessed as inhibition of viral growth incubated for 48 hrs by luciferase based analysis; assay type: functional, organism-based; conditions: Human immunodeficiency virus 1, Q259env.w6, TZM-bl
[11] = test system: Human immunodeficiency virus 1; assay: Antiviral activity against HIV1 CRF02_AG Clone 278 clinical isolate infected in human TZM-bl cells assessed as inhibition of viral growth incubated for 48 hrs by luciferase based analysis; assay type: functional, organism-based; conditions: Human immunodeficiency virus 1, CRF02_AG Clone 278, TZM-bl
[12] = Apparent permeability of the compound across gastrointestinal tract in PBS buffer at pH 7.4 at 50 uM by PAMPA analysis; assay type: ADME, tissue-based
[13] = Selectivity index, ratio of CC50 for human MT2 cells to IC50 for HIV1 IIIB infected in human MT2 cells; assay type: toxicity, cell-based; conditions: read-out: Ratio CC50/IC50
[14] = test system: Human immunodeficiency virus 1; assay: Antiviral activity against HIV1 R5 […] US4/GS 007 (91US_4) clinical isolate infected in human CEMx174 5.25M7 cells assessed as inhibition of viral growth incubated for 30 mins by ELISA assay; assay type: functional, organism-based; conditions: Human immunodeficiency virus 1, R5 […] US4/GS 007 (91US_4), CEMx174 5.25M7, 0.5 h
[15] = Cytotoxicity against human MT2 cells assessed as inhibition of cell growth measured after 3 days by CCK8 assay; assay type: toxicity, cell-based; conditions: time 3 day
[16] = Apparent permeability of the compound across gastrointestinal tract in PBS buffer at pH 5 at 50 uM by PAMPA analysis; assay type: ADME, tissue-based; conditions: for Papp at 50 µM: PAMPA, pH 5
[17] = Stability of compound in ammonium bicarbonate buffer at pH 7.8 at 0.1 mg/ml incubated for 24 hrs under at 37 degreeC in presence of pronase by HPLC analysis; assay type: physicochemical; conditions: pH 7.8, 24 h
[18] = Apparent permeability of the compound across gastrointestinal tract in PBS buffer at pH 7.4 at 200 uM by PAMPA analysis; assay type: ADME, tissue-based
in vitro = conditions: PAMPA, pH 7.4
Description: Apparent permeability of the compound across blood brain barrier in PBS buffer at pH 7.4 at 250 uM by PAMPA analysis

[19] = Apparent permeability of the compound across gastrointestinal tract in PBS buffer at pH 5 at 200 uM by PAMPA analysis; assay type: ADME, tissue-based
[20] = Apparent permeability of the compound across gastrointestinal tract in PBS buffer at pH 6.2 at 200 uM by PAMPA analysis; assay type: ADME, tissue-based
[21] = Apparent permeability of the compound across blood brain barrier in PBS buffer at pH 7.4 at 25 uM by PAMPA analysis; assay type: ADME, tissue-based

T1 sequence (Q72502 whole entry): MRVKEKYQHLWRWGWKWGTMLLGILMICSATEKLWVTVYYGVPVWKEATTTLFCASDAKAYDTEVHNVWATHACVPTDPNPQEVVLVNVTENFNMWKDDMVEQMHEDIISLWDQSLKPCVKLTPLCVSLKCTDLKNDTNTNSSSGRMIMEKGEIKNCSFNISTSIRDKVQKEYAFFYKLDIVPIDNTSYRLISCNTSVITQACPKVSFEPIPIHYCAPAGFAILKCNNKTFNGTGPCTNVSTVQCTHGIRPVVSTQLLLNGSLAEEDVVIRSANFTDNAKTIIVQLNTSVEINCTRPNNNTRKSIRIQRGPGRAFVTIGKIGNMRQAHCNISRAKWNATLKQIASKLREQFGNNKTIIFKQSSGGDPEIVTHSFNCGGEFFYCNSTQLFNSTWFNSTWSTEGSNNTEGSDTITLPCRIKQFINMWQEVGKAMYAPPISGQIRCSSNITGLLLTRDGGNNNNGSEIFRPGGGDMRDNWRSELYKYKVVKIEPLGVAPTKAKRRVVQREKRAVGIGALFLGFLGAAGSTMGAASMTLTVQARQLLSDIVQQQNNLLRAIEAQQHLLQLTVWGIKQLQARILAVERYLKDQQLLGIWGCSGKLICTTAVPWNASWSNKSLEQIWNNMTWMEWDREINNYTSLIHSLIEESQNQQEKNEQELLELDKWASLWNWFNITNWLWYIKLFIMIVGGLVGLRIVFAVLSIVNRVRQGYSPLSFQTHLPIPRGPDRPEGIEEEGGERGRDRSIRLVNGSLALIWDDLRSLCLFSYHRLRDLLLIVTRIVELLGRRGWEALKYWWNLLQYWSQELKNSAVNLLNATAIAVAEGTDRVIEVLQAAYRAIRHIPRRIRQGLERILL

Row | Compound | Papp at 50 µM [12] [×10⁻⁶ cm/s] | IC50 [1] [nM] | IC50 [2] [nM] | IC50 [4] [nM] | IC50 [5] [nM] | IC50 [8] [nM] | IC50 [10] [nM] | IC50 [11] [nM] | selectivity ratio [13] | IC50 [14] [nM] | CC50 at 72 h [15] [nM] | other results
1 | CC[C@@H](C)[C@@H](CN(CC(=O)N[C@@H](CCC(=O)O)CN(CC(=O)N[C@@H](CC(C)C)CN(CC(N)=O)S(=O)(=O)CC(C)C)S(=O)(=O)c1ccc(C(=O)O)cc1)S(=O)(=O)CC(C)C)NC(=O)CN(C[C@H](CCCCN)NC(=O)CN(C[C@H](Cc1ccc(O)cc1)NC(=O)CN(C[C@H](CCC(=O)O)NC(=O)CN(C[C@@H](NC(=O)CN(C[C@H](CCCCN)NC(=O)CN(C[C@H](Cc1c[nH]c2ccccc12)NC(=O)CN(C[C@H](CCC(=O)O)NC(=O)CN(C[C@H](Cc1c[nH]c2ccccc12)NC(=O)CN(C[C@H](CCSC)NC(C)=O)S(=O)(=O)c1ccc(OC)cc1)S(=O)(=O)CC(C)C)S(=O)(=O)c1ccc(C(=O)O)cc1)S(=O)(=O)CC(C)C)S(=O)(=O)CCN)[C@H](C)CC)S(=O)(=O)CC(C)C)S(=O)(=O)c1ccc(C(=O)O)cc1)S(=O)(=O)CC(C)C)S(=O)(=O)CCN | – | – | 4000 | – | – | – | – | – | > 10 | – | > 40000 | Stability [17]: Stable
2 | NC(=O)N1c2ccccc2C=Cc2ccccc21 [CARBAMAZEPINE] | 152 | – | – | – | – | – | – | – | – | – | – | Papp ([7]; pampa, pH 6.2, 50 µM): 141.28 10^-6 cm/s; Papp at 200 µM [18]: < 1 ×10⁻⁶ cm/s; Papp ([16]; pampa, pH 5, 50 µM): 134.41 10^-6 cm/s
3 | enfuvirtide | – | 28.4 | – | 6.5 | 3 | 72 | 50.8 | 28.4 | – | 15.7 | – | –
4 | CC[C@@H](C)[C@@H](CN(CC(=O)N[C@@H](CCC(=O)O)CN(CC(=O)N[C@@H](CC(C)C)CN(CC(N)=O)S(=O)(=O)CC(C)C)S(=O)(=O)c1ccc(C(=O)O)cc1)S(=O)(=O)CC(C)C)NC(=O)CN(C[C@H](CCCCN)NC(=O)CN(C[C@H](Cc1ccc(O)cc1)NC(=O)CN(C[C@H](CCC(=O)O)NC(=O)CN(C[C@@H](NC(=O)CN(C[C@H](CCCCN)NC(=O)CN(C[C@H](Cc1c[nH]c2ccccc12)NC(=O)CN(C[C@H](CCC(=O)O)NC(=O)CN(C[C@H](Cc1c[nH]c2ccccc12)NC(=O)CN(C[C@H](CCSC)NC(C)=O)S(=O)(=O)CC(C)C)S(=O)(=O)CC(C)C)S(=O)(=O)c1ccc(C(=O)O)cc1)S(=O)(=O)CC(C)C)S(=O)(=O)CCN)[C@H](C)CC)S(=O)(=O)CC(C)C)S(=O)(=O)c1ccc(C(=O)O)cc1)S(=O)(=O)CC(C)C)S(=O)(=O)CCN | – | – | 30000 | – | – | – | – | – | > 1.3 | – | > 40000 | Stability [17]: Stable
5 | Cn1c(=O)c2[nH]cnc2n(C)c1=O.O [THEOPHYLLINE] | – | – | – | – | – | – | – | – | – | – | – | Papp at 250 µM (in vitro): < 10 ×10⁻⁶ cm/s
6 | Cc1cc(=O)n(-c2ccccc2)n1C [ANTIPYRINE] | – | – | – | – | – | – | – | – | – | – | – | Papp at 200 µM [19]: < 1 ×10⁻⁶ cm/s; Papp at 200 µM [20]: < 1 ×10⁻⁶ cm/s

Now from value to compound, other results behind:

Row | Papp at 50 µM [12] [×10⁻⁶ cm/s] | Compound | IC50 [1] [nM] | IC50 [2] [nM] | IC50 [4] [nM] | IC50 [5] [nM] | IC50 [8] [nM] | IC50 [10] [nM] | IC50 [11] [nM] | selectivity ratio [13] | IC50 [14] [nM] | CC50 at 72 h [15] [nM] | other results
7 | 520 | CCCCCCCCCCCCCCCCCC(=O)NCCCC[C@H](NC(=O)CN(C[C@H](CC(C)C)NC(=O)CN(C[C@H](CCC(=O)O)NC(=O)CN(C[C@@H](NC(=O)CN(C[C@H](CCCCN)NC(=O)CN(C[C@H](Cc1ccc(O)cc1)NC(=O)CN(C[C@H](CCC(=O)O)NC(=O)CN(C[C@@H](NC(=O)CN(C[C@H](CCCCN)NC(=O)CN(C[C@H](Cc1c[nH]c2ccccc12)NC(=O)CN(C[C@H](CCC(=O)O)NC(=O)CN(C[C@H](Cc1c[nH]c2ccccc12)NC(=O)CN(C[C@H](CCSC)NC(C)=O)S(=O)(=O)c1ccc(OC)cc1)S(=O)(=O)CC(C)C)S(=O)(=O)c1ccc(C(=O)O)cc1)S(=O)(=O)CC(C)C)S(=O)(=O)CCN)[C@H](C)CC)S(=O)(=O)CC(C)C)S(=O)(=O)c1ccc(C(=O)O)cc1)S(=O)(=O)CC(C)C)S(=O)(=O)CCN)[C@H](C)CC)S(=O)(=O)CC(C)C)S(=O)(=O)c1ccc(C(=O)O)cc1)S(=O)(=O)CC(C)C)C(N)=O | 64.7 | 180 | 61 | 940 | 85.3 | 84.4 | 60.4 | 106 | 88.8 | 19300 | Kd [3]: 670 nM; Papp at 15 µM [6]: 256 ×10⁻⁶ cm/s; Papp at 50 µM [7]: 522 ×10⁻⁶ cm/s; Kd [9]: > 46000 nM; Papp at 50 µM [16]: 610 ×10⁻⁶ cm/s
8 | 390 | CCCCCCCCCCCCCCCCCC(=O)NCCCC[C@H](NC(=O)CN(C[C@H](CC(C)C)NC(=O)CN(C[C@H](CCC(=O)O)NC(=O)CN(C[C@@H](NC(=O)CN(C[C@H](CCCCN)NC(=O)CN(C[C@H](Cc1ccc(O)cc1)NC(=O)CN(C[C@H](CCC(=O)O)NC(=O)CN(C[C@@H](NC(=O)CN(C[C@H](CCCCN)NC(=O)CN(C[C@H](Cc1c[nH]c2ccccc12)NC(=O)CN(C[C@H](CCC(=O)O)NC(=O)CN(C[C@H](Cc1c[nH]c2ccccc12)NC(=O)CN(C[C@H](CCSC)NC(C)=O)S(=O)(=O)CC(C)C)S(=O)(=O)CC(C)C)S(=O)(=O)c1ccc(C(=O)O)cc1)S(=O)(=O)CC(C)C)S(=O)(=O)CCN)[C@H](C)CC)S(=O)(=O)CC(C)C)S(=O)(=O)c1ccc(C(=O)O)cc1)S(=O)(=O)CC(C)C)S(=O)(=O)CCN)[C@H](C)CC)S(=O)(=O)CC(C)C)S(=O)(=O)c1ccc(C(=O)O)cc1)S(=O)(=O)CC(C)C)C(N)=O | 124 | 980 | 46.7 | 81.3 | 84.9 | 154 | 89 | > 41 | 87.8 | > 40000 | Papp at 50 µM [7]: 617 ×10⁻⁶ cm/s; Papp at 25 µM [21]: 234 ×10⁻⁶ cm/s; Papp at 50 µM [16]: 602 ×10⁻⁶ cm/s

Reference: ChEMBL document CHEMBL5365482, “Rational Design of Sulfonyl-γ-AApeptides as Highly Potent HIV-1 Fusion Inhibitors with Broad-Spectrum Activity” (J Med Chem, 2023)
